This is an account of results in ChEMBL document CHEMBL1201862, “PubChem BioAssay data set” (2004).

Among the test systems are NCI-H23; OVCAR-4; OVCAR-3; HCT-15; UACC-62; SR; UO-31; HL-60; MDA-MB-231; SF-295; MCF7; UACC-257; DU-145; MDA-N; A498; MDA-MB-435; K562; SN12C; SF-539; RXF 393.
What all share (experiment): NCI anticancer screen, dose series, 48 h

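Step 1: Grow cells in 96-well plates. Step 2: Expose to compound for 48 hours at 5 concentrations. Step 3: Interpolate endpoints linearly; if unreached, use highest concentration. GI50: concentration for 50% inhibition of growth.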 Active and inactive are the calls of the source. Rule as the data show it: active = GI50 up to about 1.1 µM and inactive = higher.

`C=C(CCOC)CCC1CCCCC(=C)[C@H]1O` (stereo partly drawn): the GI50 in the assay on NCI-H23 was > 100 µM (inactive); in the assay with OVCAR-4 it was > 100 µM (inactive); with OVCAR-3 it was > 100 µM (inactive); with HCT-15, > 100 µM; in the assay on UACC-62, > 100 µM (inactive); in the assay on SR, > 100 µM (inactive). For the same molecule, the GI50 in the assay on UO-31, in the assay with HL-60, in the assay with MDA-MB-231, in the assay with SF-295, with MCF7 and in the assay on UACC-257 was > 100 µM (inactive) each time. The GI50 in the assay on DU-145, in the assay with MDA-N, in the assay with A498, in the assay with MDA-MB-435, in the assay with K562 and in the assay with SN12C was > 100 µM (inactive) each time.

`CC1=C(O)C(=O)C2=C(C1=O)[C@@H]([C@@H](C)C/C=C/C(C)(C)O)CC[C@@H]2C`: the GI50 is 49.2 µM (inactive) in the assay on NCI-H23; 25.5 µM (inactive) in the assay on OVCAR-3; 31 µM in the assay with HCT-15; 47.4 µM (inactive) with UACC-62; 35.3 µM (inactive) with SR; 62.2 µM (inactive) in the assay with UO-31. Besides, the GI50 was 33.4 µM (inactive) in the assay with HL-60; > 100 µM (inactive) with MDA-MB-231; > 100 µM (inactive) in the assay with SF-539; 44.3 µM (inactive) in the assay on SF-295; 41.1 µM (inactive) with MCF7; 61.8 µM (inactive) in the assay on UACC-257. The GI50 with DU-145 is 98.6 µM (inactive); in the assay with MDA-N, 44.8 µM (inactive); in the assay with A498, > 100 µM (inactive); in the assay on MDA-MB-435, 43.2 µM (inactive); with K562, 41.1 µM (inactive); in the assay with SN12C, 87.1 µM (inactive).

With `CCOC(=O)[C@H](C)OC(=O)[C@@](C)(NC(=O)c1ccccc1C(=O)OC)[C@@H]1NC=C(C(=O)OC)CS1`, the GI50 with NCI-H23 was > 100 µM (inactive); in the assay on RXF 393, 97.9 µM (inactive); with OVCAR-4, > 100 µM (inactive); in the assay with OVCAR-3 it was > 100 µM (inactive); in the assay on HCT-15 it was > 100 µM; in the assay with UACC-62, 76 µM (inactive). In addition, the GI50 in the assay on SR is 20.4 µM (inactive); with UO-31, > 100 µM (inactive); in the assay on MDA-MB-231 it was > 100 µM (inactive); with SF-295 it was > 100 µM (inactive); in the assay with MCF7, 79.1 µM (inactive); with UACC-257 it was > 100 µM (inactive). Also, the GI50 in the assay with DU-145 was > 100 µM (inactive); in the assay on MDA-N it was 21.9 µM (inactive); in the assay with A498, > 100 µM (inactive); in the assay on MDA-MB-435, 27.6 µM (inactive); in the assay on K562, 36.5 µM (inactive); with SN12C it was > 100 µM (inactive).

Take `Cc1ccc2c(c1)C(=O)/C(=C\c1ccccc1)CCS2(=O)=O`: the GI50 was 12.7 µM (inactive) in the assay with NCI-H23; 12 µM (inactive) in the assay with OVCAR-4; 13.1 µM (inactive) with OVCAR-3; 4.84 µM with HCT-15; 11.9 µM (inactive) in the assay on UACC-62; 2.92 µM (inactive) with SR. Further, the GI50 is 10.8 µM (inactive) with UO-31; 0.303 µM (active) in the assay with HL-60; 12.7 µM (inactive) in the assay on MDA-MB-231; 10.3 µM (inactive) in the assay on SF-539; 14.2 µM (inactive) in the assay with SF-295; 6.21 µM (inactive) with MCF7. For the same molecule, the GI50 with UACC-257 is 12.3 µM (inactive); in the assay on DU-145, 3.27 µM (inactive); in the assay with MDA-N, 16.9 µM (inactive); in the assay with A498 it was 19.7 µM (inactive); in the assay with MDA-MB-435, 10.8 µM (inactive); in the assay with K562, 2.32 µM (inactive). The GI50 in the assay on SN12C was 14.2 µM (inactive).
